In patent US12202858B2, “Solid-phase carrier including IgG-binding peptide, and IgG separation method” (KAGOSHIMA UNIVERSITY, priority 2018, dated 2025):
Bridges are numbered along the chain shown (N, C = ends). Primed or numbered codes have the meaning given here. Where no end group is shown, it is not given here. [ ]: non-standard residue; d: D form. PEG4′ = not defined here

Columns and labels:
[1] = tested on: human serum-derived y-globulin; assay: Evaluation of alkali resistance: DBC after washing with 0.1 M sodium hydroxide solution; type: physicochemical; conditions: up to ten cycles of 0.1 M sodium hydroxide treatment
Method: The DBC measurement was performed using a liquid chromatography instrument AKTAexplore (GE Healthcare). After equilibrating the prepared column with an adsorption solution, 1 mg/mL human serum-derived y-globulin (Sigma-Aldrich) dissolved in the adsorption solution was fed at a flow rate of 1 mL/min. The DBC was determined from the amount of the sample fed until the value of an absorbance at 280 nm excluding the non-adsorbed component reached 10% of the absorbance of the entire sample.
To a 1-mg peptide-immobilized 1-mL column prepared by the same method as in Example 2, 10 mL of 0.1 M sodium hydroxide solution was fed. The column was then washed with 10 mL of an adsorption solution. After washing with the sodium hydroxide solution/adsorption solution for 1, 2, 5, and 10 times, measurement of DBC was performed at a flow rate of 1 mL/min in the same manner as in Example 2. The variation rate of DBC was determined based on the DBC before the sodium hydroxide treatment as 100%. […]

[2] = molecular target: human IgG; assay: Affinity analysis by surface plasmon resonance (BIAcore T200), human IgG immobilized on sensor chip; type: binding; conditions: BIAcore T200, HBS-EP buffer pH 7.4, immobilized human IgG
Method: The affinity analysis was performed by the following method. First, a solution containing equal amounts of 0.4 M EDC (1-ethyl-3-(3-dimethylaminopropyl)-carbodiimide) and 0.1 M sulfo-NHS (sulfo-N-hydroxysuccinimide)) was injected at a flow rate of […] onto a CMS sensor chip set in BIAcore T200 (GE healthcare), thereby activating the sensor chip. Then, under the condition of pH 5.5 (10 mM Na acetate), human IgG was immobilized onto the sensor chip. For the measurement, HBS-EP buffer (10 mM HEPES, 150 mM NaCl, 0.005% Tween 20, 3 mM EDTA, pH 7.4) was used, and the binding reaction was monitored by injecting 15.6, 31.2, 62.5, 125, 250, 500, and 1000 nM of the purified cross-linked cyclic peptide described above for 180 seconds at a flow rate of […]. For measuring the dissociation reaction, only the buffer was injected for 600 seconds. The analysis of interaction parameters was performed using BIA evaluation T100 software.
In Comparative Example 1, the cross-linked cyclic peptide described in Patent Document 2 was synthesized, and measurement of affinity was performed in the same manner as in Example 1. Synthesis of the peptide and cross-linking reaction were carried out under the following conditions.

| Substance | decrease in DBC by sodium hydroxide treatment (alkali resistance) [1] | Kd [2] [nM] | koff [2] [s⁻¹] | kon [2] [M⁻¹ s⁻¹] |
| --- | --- | --- | --- | --- |
| N-terminal PEG4-modified, C-terminal amidated cross-linked cyclic peptide GPDCAYHRGELVWCTFH (SEQ ID NO: 31), two cysteine residues linked as in the formula [Example 1] | almost no decrease in DBC | 340 | 0.22 | 650000 |
| PEG4-modified, amidated GPDCAYHRGELVWCTFH peptide of Patent Document 2, cysteine sulfide groups linked via 1,3-dichloro-2-propanone-derived linker ([PEG4′]GPDCAYHRGELVWCTFH-NH2; bridge 5-15; not fully specified (bridges)) [Comparative Example 1, reference compound] |  | 4900 | 0.005 | 1000 |
